Experimental data published in patent US9273043B2, “TRPV1 antagonists including dihydroxy substituent and uses thereof” (Purdue Pharma L.P., priority 2011, dated 2016).
In brackets after ≈: the same amount, converted by molar mass. Like-named read-outs stand apart in the source and are kept apart here.

Key:
[1] = Aqueous solubility at pH 1.2 and pH 6.8; format: physicochemical; settings: aqueous solution
[2] = In vivo assay of body temperature increase (rectal body temperature); set-up: species or system rat; settings: rats, oral, 10 mL/kg of 1 mg/mL in 0.5% methylcellulose; greatest ΔTb versus vehicle control at 0.5, 1 or 2 hrs
Source text: Hyperthermia or undesirable elevation in animal body temperature is known to be an undesirable side-effect accompanying the administration of certain TRPV1 antagonists (Gavva, “Body-temperature maintenance as the predominant function of the vanilloid receptor TRPV1,” Trends Pharmacol. Sci. 29(11):550-557 (2008)).
Test Animals: Selection of rats (Crl/SD rats, 7 weeks, male) was based on rectal body temperature measured during the morning of the day of dosing as described below. In addition, to minimize spontaneous, stress-induced increases in body temperature, rats were acclimated in advance to both the rectal measurement procedure and to being handled and dosed. All lodging and testing took place in animal care laboratories with constant room temperature and humidity. The rats were free to move and ingest food and water throughout. Each rat was coded with a colored line on the tail, housed in a separate cage, and permitted the normal range of movement. Immediately before each body temperature measurement, a rat was transferred to a measurement cage. To reduce stress which could influence its body temperature, each rat was covered with towels during the measurement. A thermistor probe was then carefully inserted into the rectum of each rat and left in place until the temperature reading on the digital display had stabilized; this value was recorded.
Assay: On the day before dosing, rectal body temperature was measured at 9:00, 10:00, 11:00, 12:30, 13:30, 14:30, and 15:30 o'clock to familiarize the rats with the measurement procedure prior to administration of the test or control treatments. The rats were also dosed by oral gavage without vehicle at 12:30 o'clock to acclimate and familiarize them with the handling and dosing procedure.
On the day of dosing, only rats with rectal body temperatures within the range of from 37.0° C. to 37.7° C. were selected for study. Rectal body temperatures were measured at 9:00, 10:00, and 11:00 o'clock. Rats were excluded from the study if either their rectal body temperature was over 37.9° C. at 10:00 o'clock or was outside the range of from 37.0° C. to 37.7° C. at 11:00 o'clock. The selected rats were divided into several groups based on their rectal body temperatures at 11:00 o'clock. Rectal body temperatures of the selected rats were measured again at 12:30 o'clock and any rat with a rectal body temperature of 38.0° C. or greater was also excluded from the study.
Following assignment to either a test or control group, a test compound or a control was administered to the rats. Each test compound was dissolved in a vehicle of 0.5% aqueous methylcellulose solution and the final concentration of the test compound was adjusted to 1 mg/mL. Each test compound was orally administered once at a dose of 10 mL/kg. The same volume of the control (vehicle only) was administered once to the control group. Rectal body temperatures were measured at the following time points: 0.5, 1, and 2 hrs after administration.
The body temperature increase (ΔTb) for each test compound was calculated by subtracting, at each time point, the average temperature of the control group from the average temperature of the group administered that test compound. The greatest ΔTb obtained for each test compound at any of the time points is shown in Table 11 below, along with the ΔTb of the control.

[3] = target: human TRPV1 (Homo sapiens (Human), UniProt Q8NER1); assay: Human TRPV1 heat-based assay, hTRPV1/CHO cells (hHeat-CHO); format: cell-based; settings: temperature ramp 25 to 45 °C, mean ± SEM
human TRPV1, sequence (Q8NER1 whole entry, looked up): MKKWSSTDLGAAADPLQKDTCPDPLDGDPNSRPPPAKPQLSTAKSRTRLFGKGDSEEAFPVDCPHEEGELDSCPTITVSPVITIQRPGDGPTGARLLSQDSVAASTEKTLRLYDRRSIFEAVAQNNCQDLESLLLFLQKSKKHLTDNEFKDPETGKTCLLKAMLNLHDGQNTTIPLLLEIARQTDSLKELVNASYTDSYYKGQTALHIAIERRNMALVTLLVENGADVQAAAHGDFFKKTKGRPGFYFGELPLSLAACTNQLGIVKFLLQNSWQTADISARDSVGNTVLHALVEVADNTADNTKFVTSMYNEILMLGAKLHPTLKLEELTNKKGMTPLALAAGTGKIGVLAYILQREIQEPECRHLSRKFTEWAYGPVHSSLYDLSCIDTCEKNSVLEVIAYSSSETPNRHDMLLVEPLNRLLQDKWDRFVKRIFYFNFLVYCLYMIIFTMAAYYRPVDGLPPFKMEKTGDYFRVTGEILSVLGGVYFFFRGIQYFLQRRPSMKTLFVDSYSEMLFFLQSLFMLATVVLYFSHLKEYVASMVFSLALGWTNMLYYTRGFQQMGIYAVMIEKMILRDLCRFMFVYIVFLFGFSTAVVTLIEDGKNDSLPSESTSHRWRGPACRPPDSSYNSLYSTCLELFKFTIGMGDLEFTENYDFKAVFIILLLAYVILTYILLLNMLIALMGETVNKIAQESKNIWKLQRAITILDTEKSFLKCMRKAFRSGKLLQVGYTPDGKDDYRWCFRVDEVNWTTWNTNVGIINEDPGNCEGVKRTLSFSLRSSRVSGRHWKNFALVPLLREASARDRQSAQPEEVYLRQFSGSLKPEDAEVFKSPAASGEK
Description: Human TRPV1 Heat-based Assay:
CHO cells stably expressing human TRPV1 (hTRPV1) were used. Functional assessment of heat-induced activation of hTRPV1 was carried out in a cell-based Ca^2+ flux assay using ABI7500 Fast Real-Time PCR System as described in Reubish et al., “Functional assessment of temperature-gated ion-channel activity using a real-time PCR machine,” www.BioTechniques.com 47(3):iii-ix (2009), which is hereby incorporated by reference. Briefly, hTRPV1/CHO cells were cultured in growth media in a tissue culture dish at 37° C. in a CO2 incubator. On the day of the assay, culture media were removed and the cells were then detached using 0.05% trypsin at 37° C. with 5% CO2, for 90 s. The detached cells were centrifuged (1000 rpm, 4 min) to remove trypsin-containing supernatant and resuspended in assay buffer (115 mM NaCl, 5.4 mM KCl, 0.8 mM MgCl2.6H2O, 1.8 mM CaCl2.2H2O, 13.8 mM D-glucose, and 20 mM HEPES). Then, the cells were loaded with 5 μM Fluo-4, a Ca^2+ reporter dye, in the presence of 2.5 mM probenecid at 37° C. with 5% CO2, for 45 min. Thereafter, the cells were washed twice with measuring buffer (assay buffer supplemented with 0.1% BSA and 3.2 mM CaCl2) then transferred to a Fast 96-well Reaction Plate (0.1 mL) (Part no. 4346907, MICROAMP, Applied Biosystems, Foster City, Calif.). The cell density was 100,000 cells/24 μL/well. A solution of the compound under test (6 μL/well) was added into each well of the 96-well plate. Thus, the reaction volume per well was 30 μL.
The plates were then placed inside an ABI7500 Fast Real-Time PCR instrument (Applied Biosystems) to read fluorescence at different temperatures using 7500 software, version 2.0.2 (Applied Biosystems). The initial temperature was set at 25° C. for 1 min. followed by a temperature ramp to 45° C. in 100 s to deliver heat to cells. [Ca^2+], response of hTRPV1/CHO cells to heat was determined as: [fluorescence read at 45° C.−fluorescence read at 25° C.].
Compound concentration response curves and IC50 values were analyzed using GraphPad Prism 4 software (GraphPad Software, La Jolla, Calif.).
The IC50 data provided in Table 6 are shown as mean±standard error of the mean; the number of trials conducted for each assay is shown in parentheses except for only a single trial where no number of trials is shown in parentheses.

[4] = pH 1.2, simulated gastric fluid, read-out: aqueous solubility at pH 1.2
[5] = pH 6.8, aqueous buffer, read-out: aqueous solubility at pH 6.8

In the case of `C[C@H]1CN(c2ncc([C@H](O)CO)cc2F)CCN1C(=O)Nc1nc2ccccc2s1` [A122(a), (S)—N-(benzo[d]thiazol-2-yl)-4-(5-((S)-1,2-dihydroxyethyl)-3-fluoropyridin-2-yl)-2-methylpiperazine-1-carboxamide], the solubility [1, 4] is reported as > 50 µM, the solubility [1, 5] is reported as > 50 µM and the “ΔTb, body temperature increase” value [2] is reported as 0.4 °C.

For `C[C@@H]1CN(C(=O)Nc2nc3ccc(F)cc3s2)CCN1c1ncc([C@H](O)CO)cc1F` [A125(b), (R)-4-{5-[(S)-1,2-dihydroxyethyl]-3-fluoropyridin-2-yl}-N-(6-fluorobenzo[d]thiazol-2-yl)-3-methylpiperazine-1-carboxamide], the IC50 [3] was 389 ± 83 nM and the “ΔTb, body temperature increase” value [2] was 0.1 °C.

In the case of `Cc1ccc2nc(NC(=O)N3CCN(c4ncc([C@H](O)CO)cc4F)C[C@@H]3C)sc2c1` [A126(a), (S)-4-(5-((S)-1,2-dihydroxyethyl)-3-fluoropyridin-2-yl)-2-methyl-N-(6-methylbenzo[d]thiazol-2-yl)piperazine-1-carboxamide], the solubility [1, 4] is reported as > 50 µM, the solubility [1, 5] is reported as 14 µM (≈ 6.24 µg/mL) and the “ΔTb, body temperature increase” value [2] is reported as 0.2 °C.

With `C[C@H]1CN(c2ncc([C@H](O)CO)cc2F)CCN1C(=O)Nc1nc2cc(F)c(F)cc2s1` [A158(a), (S)—N-(5,6-difluorobenzo[d]thiazol-2-yl)-4-(5-((S)-1,2-dihydroxyethyl)-3-fluoropyridin-2-yl)-2-methylpiperazine-1-carboxamide] the solubility [1, 4] was > 50 µM, the solubility [1, 5] was 5 µM (≈ 2.34 µg/mL) and the “ΔTb, body temperature increase” value [2] was 0.4 °C.

For `C[C@@H]1CN(C(=O)Nc2nc3cc(F)c(F)cc3s2)CCN1c1ncc([C@H](O)CO)cc1F` [AE, (R)—N-(5,6-difluorobenzo[d]thiazol-2-yl)-4-{5-[(S)-1,2-dihydroxyethyl]-3-fluoropyridin-2-yl}-3-methylpiperazine-1-carboxamide], the IC50 [3] was 101.5 ± 0.8 nM and the “ΔTb, body temperature increase” value [2] was 0.5 °C.

With `C[C@H](O)[C@@H](O)c1cnc(N2CCN(C(=O)Nc3nc4cc(F)c(F)cc4s3)C[C@H]2C)c(F)c1` [B158(j), (R)—N-(5,6-difluorobenzo[d]thiazol-2-yl)-4-{5-[(1S,2S)-1,2-dihydroxypropyl]-3-fluoropyridin-2-yl}-3-methylpiperazine-1-carboxamide] the “ΔTb, body temperature increase” value [2] was 0.1 °C.

For `C[C@H](O)[C@@H](O)c1cnc(N2CCN(C(=O)Nc3nc4ccc(F)cc4s3)CC2)c(Cl)c1` [C4(r), 4-{3-Chloro-5-[(1S,2S)-1,2-dihydroxypropyl]pyridin-2-yl}-N-(6-fluorobenzo[d]thiazol-2-yl)piperazine-1-carboxamide], the IC50 [3] was 87 ± 13 nM and the “ΔTb, body temperature increase” value [2] was 0.3 °C.

With `C[C@H](O)[C@@H](O)c1cnc(N2CCN(C(=O)Nc3nc4ccc(F)cc4s3)CC2)c(F)c1` [C125(r), 4-(5-((1S,2S)-1,2-dihydroxypropyl)-3-fluoropyridin-2-yl)-N-(6-fluorobenzo[d]thiazol-2-yl)piperazine-1-carboxamide] the solubility [1, 4] was > 50 µM, the solubility [1, 5] was 3 µM (≈ 1.35 µg/mL) and the IC50 [3] was 335 ± 40 nM. For the same compound, the “ΔTb, body temperature increase” value [2] was 0.3 °C.

For `Cc1ccc2nc(NC(=O)N3CCN(c4ncc([C@H](O)[C@H](C)O)cc4F)CC3)sc2c1` [C126(r), 4-[5-((1S,2S)-1,2-Dihydroxy-propyl)-3-fluoro-pyridin-2-yl]piperazine-1-carboxylic acid (6-methyl-benzothiazol-2-yl)-amide], the solubility [1, 4] was > 50 µM, the solubility [1, 5] was 4 µM (≈ 1.78 µg/mL) and the IC50 [3] was 155 ± 25 nM. The “ΔTb, body temperature increase” value [2] was 0.4 °C.

In the case of `Cc1cc2nc(NC(=O)N3CCN(c4ncc([C@H](O)[C@H](C)O)cc4F)CC3)sc2cc1C` [C170(r), 4-(5-((1S,2S)-1,2-dihydroxypropyl)-3-fluoropyridin-2-yl)-N-(5,6-dimethylbenzo[d]thiazol-2-yl)piperazine-1-carboxamide], the IC50 [3] is reported as 170 ± 20 nM and the “ΔTb, body temperature increase” value [2] is reported as 0.2 °C.
